Columns and labels:
Kv1.3 potassium channel = target: T1, Kv1.3 potassium channel (Homo sapiens, UniProt P22001); test: Kv1.3 potassium channel blocker activity, automated whole-cell patch clamp (Patchliner); format: cell-based
T1 construct: expressed in transfected cells
How it was run: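 IC50 came from Hill-equation fits of peak and AUC currents from the final pulse at each concentration, normalized to compound-free control. Compounds applied consecutively at 30 nM to 100 μM (up to 0.3% DMSO) to Kv1.3-expressing CHO-K1 cells, P/4 leak subtraction. Pulses were +40 mV, 100 ms, from −90 mV holding, at 0.1 Hz on Patchliner.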

hERG channel = target: T2, hERG channel (Homo sapiens, UniProt Q12809); test: hERG electrophysiology, automated whole-cell patch clamp (Patchliner); format: cell-based
T2 construct: expressed in transfected cells
T2 sequence (Q12809 whole entry): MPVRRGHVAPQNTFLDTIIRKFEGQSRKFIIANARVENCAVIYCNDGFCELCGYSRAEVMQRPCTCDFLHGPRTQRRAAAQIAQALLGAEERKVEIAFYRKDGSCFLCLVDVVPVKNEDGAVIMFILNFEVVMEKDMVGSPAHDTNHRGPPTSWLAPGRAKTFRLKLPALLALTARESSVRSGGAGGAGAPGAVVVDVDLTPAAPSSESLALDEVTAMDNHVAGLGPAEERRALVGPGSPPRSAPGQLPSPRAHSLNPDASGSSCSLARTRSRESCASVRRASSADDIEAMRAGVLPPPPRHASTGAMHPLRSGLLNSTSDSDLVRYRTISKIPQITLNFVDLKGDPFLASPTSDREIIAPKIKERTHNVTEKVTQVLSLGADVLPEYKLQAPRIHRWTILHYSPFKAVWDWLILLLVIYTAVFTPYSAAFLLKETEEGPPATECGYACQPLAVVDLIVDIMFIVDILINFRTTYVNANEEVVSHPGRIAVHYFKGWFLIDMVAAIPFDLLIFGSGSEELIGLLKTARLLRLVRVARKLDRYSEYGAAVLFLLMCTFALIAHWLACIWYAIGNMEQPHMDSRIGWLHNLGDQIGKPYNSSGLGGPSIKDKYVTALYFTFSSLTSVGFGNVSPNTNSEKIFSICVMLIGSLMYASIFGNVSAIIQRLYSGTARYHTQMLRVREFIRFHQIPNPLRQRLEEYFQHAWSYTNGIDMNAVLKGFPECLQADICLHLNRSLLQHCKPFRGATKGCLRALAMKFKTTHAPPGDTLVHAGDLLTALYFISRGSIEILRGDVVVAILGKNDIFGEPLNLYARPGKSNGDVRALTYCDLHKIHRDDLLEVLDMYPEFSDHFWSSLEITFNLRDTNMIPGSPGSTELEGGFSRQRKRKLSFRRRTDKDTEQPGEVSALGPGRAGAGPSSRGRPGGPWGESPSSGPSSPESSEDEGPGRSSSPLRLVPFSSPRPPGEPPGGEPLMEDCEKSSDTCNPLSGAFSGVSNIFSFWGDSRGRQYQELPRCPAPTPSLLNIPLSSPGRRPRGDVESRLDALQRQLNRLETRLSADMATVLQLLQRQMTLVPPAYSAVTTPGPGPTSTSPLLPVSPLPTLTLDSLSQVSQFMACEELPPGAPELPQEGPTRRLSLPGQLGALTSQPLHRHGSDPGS
How it was run: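 Automated whole-cell patch clamp on CHO-K1 cells stably expressing hERG; 30 nM–100 μM applied cumulatively to the same cell, ≤0.3% DMSO. Pulses: −80 mV holding, +20 mV for 300 ms, −50 mV for 300 ms tail, 0.3 Hz, 70 per concentration. Last-pulse AUC and peak, normalized to control, were fitted to a Hill equation for IC50.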

[1] = Kv1.3 potassium channel, whole-cell patch clamp
[2] = hERG channel, whole-cell patch clamp
[3] = CHO-K1 cells stably expressing Kv1.3, 100 ms pulses from -90 mV to +40 mV, 0.1 Hz
[4] = CHO-K1 cells stably expressing hERG, +20 mV 300 ms, -50 mV 300 ms tail current, 0.3 Hz

T1 sequence (P22001 whole entry): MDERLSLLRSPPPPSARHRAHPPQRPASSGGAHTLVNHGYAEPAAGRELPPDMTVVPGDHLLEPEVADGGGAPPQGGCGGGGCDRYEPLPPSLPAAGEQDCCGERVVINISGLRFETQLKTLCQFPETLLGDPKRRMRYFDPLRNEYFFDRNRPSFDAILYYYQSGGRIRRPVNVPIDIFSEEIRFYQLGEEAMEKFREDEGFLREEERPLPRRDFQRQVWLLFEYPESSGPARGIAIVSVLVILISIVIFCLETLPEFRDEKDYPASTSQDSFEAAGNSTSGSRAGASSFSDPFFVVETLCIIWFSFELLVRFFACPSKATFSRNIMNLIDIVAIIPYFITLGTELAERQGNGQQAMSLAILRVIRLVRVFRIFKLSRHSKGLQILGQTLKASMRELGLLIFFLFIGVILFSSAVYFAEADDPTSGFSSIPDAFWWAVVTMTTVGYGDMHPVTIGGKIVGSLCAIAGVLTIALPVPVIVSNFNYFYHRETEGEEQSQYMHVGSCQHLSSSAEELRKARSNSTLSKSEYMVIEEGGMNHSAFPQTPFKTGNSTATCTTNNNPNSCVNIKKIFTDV

IC50 (Kv1.3 potassium channel; [1]) | IC50 (Kv1.3 potassium channel; [3]) | Structure (SMILES) | IC50 (hERG channel; [2]) | IC50 (hERG channel; [4])
< 1 µM |  | CNC(=O)CC1OC[C@@H]2C[C@H](c3c(O)ccc(Cl)c3Cl)CCN2C1=O (stereo partly drawn) [Compound 188, 2-[(8R,9aS)-8-(2,3-dichloro-6-hydroxyphenyl)-4-oxo-hexahydro-1H-pyrido[2,1-c] [1,4]oxazin-3-yl]-N-methylacetamide] | > 30 µM | 
< 1 µM |  | O=C1CN([C@H]2CCNC2)C[C@@H]2C[C@H](c3c(O)ccc(Cl)c3Cl)CN12 [Compound 142, (7R,8aS)-7-(2,3-dichloro-6-hydroxyphenyl)-2-[(3S)-pyrrolidin-3-yl]-hexahydropyrrolo [1,2-a]pyrazin-4-one] | > 30 µM | 
< 1 µM |  | O=C1CN(C[C@H](O)CO)C[C@@H]2C[C@H](c3c(O)ccc(Cl)c3Cl)CN12 (single isomer, unassigned; isomer 2) [Compound 115] | > 30 µM | 
< 1 µM |  | C[C@@]1(CO)OC(=O)N2C[C@@H](c3c(O)ccc(Cl)c3Cl)C[C@H]21 (single isomer, unassigned) [Compound 265] | > 30 µM | 
< 1 µM |  | C[C@H](CO)N1CC(=O)N2C[C@@H](c3c(O)ccc(Cl)c3Cl)C[C@H]2C1 (single isomer, unassigned) [Compound 116] | > 30 µM | 
< 1 µM |  | O=C1CN(C[C@@H]2CNCCO2)C[C@@H]2C[C@H](c3c(O)ccc(Cl)c3Cl)CN12 [Compound 146, (7R,8aS)-7-(2,3-dichloro-6-hydroxyphenyl)-2-[(2S)-morpholin-2-ylmethyl]-hexahydropyrrolo [1,2-a]pyrazin-4-one] | > 30 µM | 
< 1 µM |  | N[C@H]1CC(=O)N2C[C@@H](c3c(O)ccc(Cl)c3Cl)C[C@H]2C1 (single isomer, unassigned) [Compound 189] | > 30 µM | 
< 1 µM |  | O=C(C[C@@H](O)C(F)F)N1CC(=O)N2C[C@@H](c3c(O)ccc(Cl)c3Cl)C[C@H]2C1 [Compound 76, (7R,8aS)-7-(2,3-dichloro-6-hydroxyphenyl)-2-[(3R)-4,4-difluoro-3-hydroxybutanoyl]-hexahydropyrrolo [1,2-a]pyrazin-4-one] | > 30 µM | 
 | < 1 µM | O=C1[C@@H](CO)NC[C@@H]2C[C@H](c3c(O)ccc(Cl)c3Cl)CCN12 [Compound 57, (3R,8R,9aS)-8-(2,3-dichloro-6-hydroxyphenyl)-3-(hydroxymethyl)-octahydropyrido[1,2-a]pyrazin-4-one] |  | > 30 µM
< 1 µM |  | O=C1C(CN2CCCC2)OC[C@@H]2C[C@H](c3c(O)ccc(Cl)c3Cl)CCN12 (stereo partly drawn) [Compound 181, (8R,9aS)-8-(2,3-dichloro-6-hydroxyphenyl)-3-(pyrrolidin-1-ylmethyl)-hexahydro-1H-pyrido[2,1-c][1,4]oxazin-4-one] | < 10 µM | 
< 1 µM |  | O=C1C(CN2CC(O)C2)OC[C@@H]2C[C@H](c3c(O)ccc(Cl)c3Cl)CCN12 (stereo partly drawn) [Compound 183, (8R,9aS)-8-(2,3-dichloro-6-hydroxyphenyl)-3-[(3-hydroxyazetidin-1-yl)methyl]-hexahydro-1H-pyrido[2,1-c][1,4]oxazin-4-one] | < 30 µM | 
< 1 µM |  | CC(C)(O)[C@@H]1OC(=O)N2C[C@@H](c3c(O)ccc(Cl)c3Cl)C[C@@H]12 (single isomer, unassigned) [Compound 256] | > 30 µM | 
< 1 µM |  | O=C1CN(C[C@@H]2COCCN2)C[C@@H]2C[C@H](c3c(O)ccc(Cl)c3Cl)CN12 [Compound 144, (7R,8aS)-7-(2,3-dichloro-6-hydroxyphenyl)-2-[(3R)-morpholin-3-ylmethyl]-hexahydropyrrolo [1,2-a]pyrazin-4-one] | > 30 µM | 
< 1 µM |  | O=C1OC[C@H](O)[C@@H]2C[C@H](c3c(O)ccc(Cl)c3Cl)CN12 (single isomer, unassigned) [Compound 267] | > 30 µM | 
< 1 µM |  | O=C1CN(C[C@H]2COCCN2)C[C@@H]2C[C@H](c3c(O)ccc(Cl)c3Cl)CN12 [Compound 145, (7R,8aS)-7-(2,3-dichloro-6-hydroxyphenyl)-2-[(3S)-morpholin-3-ylmethyl]-hexahydropyrrolo [1,2-a]pyrazin-4-one] | < 30 µM | 
< 1 µM |  | CNC(=O)CN1CC(=O)N2C[C@@H](c3c(O)ccc(Cl)c3Cl)C[C@H]2C1 [Compound 111, 2-[(7R,8aS)-7-(2,3-dichloro-6-hydroxyphenyl)-4-oxo-hexahydropyrrolo [1,2-a]pyrazin-2-yl]-N-methylacetamide] | > 30 µM | 
< 1 µM |  | O=C1CN(CCN2CCNCC2)C[C@@H]2C[C@H](c3c(O)ccc(Cl)c3Cl)CN12 [Compound 120, (7R,8aS)-7-(2,3-dichloro-6-hydroxyphenyl)-2-[2-(piperazin-1-yl)ethyl]-hexahydropyrrolo [1,2-a]pyrazin-4-one] | > 30 µM | 
< 1 µM |  | C[C@@H](CO)N1CC(=O)N2C[C@@H](c3c(O)ccc(Cl)c3Cl)C[C@H]2C1 (single isomer, unassigned; isomer 2) [Compound 117] | > 30 µM | 

IC50 (Kv1.3 potassium channel; [1]) | IC50 (Kv1.3 potassium channel; [3]) | Structure (SMILES) | IC50 (hERG channel; [2]) | IC50 (hERG channel; [4])
< 1 µM |  | O=C1O[C@@H](CO)C[C@@H]2C[C@H](c3c(O)ccc(Cl)c3Cl)CN12 (single isomer, unassigned) [Compound 269] | > 30 µM | 
< 1 µM |  | O=C1O[C@H](CN2CCOCC2)[C@@H]2C[C@H](c3c(O)ccc(Cl)c3Cl)CN12 (single isomer, unassigned) [Compound 285] | > 30 µM | 
< 1 µM |  | O=C1C[C@H](N2CC(=O)N3C[C@@H](c4c(O)ccc(Cl)c4Cl)C[C@H]3C2)CN1 (single isomer, unassigned; isomer 2) [Compound 161] | > 30 µM | 
< 1 µM |  | O=C(NCCO)N1CC(=O)N2C[C@@H](c3c(O)ccc(Cl)c3Cl)C[C@H]2C1 [Compound 104, (7R,8aS)-7-(2,3-dichloro-6-hydroxyphenyl)-N-(2-hydroxyethyl)-4-oxo-hexahydropyrro[1,2-a]pyrazine-2-carboxamide] | > 30 µM | 
 | < 1 µM | O=C1[C@@H](CO)OC[C@@H]2C[C@H](c3c(O)ccc(Cl)c3Cl)CCN12 (single isomer, unassigned) [Compound 52] |  | > 30 µM
< 1 µM |  | CC(C)(O)CN1CC(=O)N2C[C@@H](c3c(O)ccc(Cl)c3Cl)C[C@H]2C1 [Compound 148, (7R,8aS)-7-(2,3-dichloro-6-hydroxyphenyl)-2-(2-hydroxy-2-methylpropyl)-hexahydropyrrolo[1,2-a]pyrazin-4-one] | > 30 µM | 
< 1 µM |  | O=C1C[C@H](N2CC[C@@H](O)C2)C[C@@H]2C[C@H](c3c(O)ccc(Cl)c3Cl)CN12 (single isomer, unassigned) [Compound 191] | < 30 µM | 
< 1 µM |  | C[C@]1(CO)OC(=O)N2C[C@@H](c3c(O)ccc(Cl)c3Cl)C[C@H]21 (single isomer, unassigned) [Compound 264] | > 30 µM | 
< 1 µM |  | O=C(NC[C@H]1OC(=O)N2C[C@@H](c3c(O)ccc(Cl)c3Cl)C[C@@H]12)C1CNC1 (single isomer, unassigned) [Compound 278] | > 30 µM | 
< 1 µM |  | O=C1CN(C(=O)C2(CO)CC2)C[C@@H]2C[C@H](c3c(O)ccc(Cl)c3Cl)CN12 [Compound 67, (7R,8aS)-7-(2,3-dichloro-6-hydroxyphenyl)-2-[1-(hydroxymethyl)cyclopro-panecarbonyl]-hexahydropyrrolo[1,2-a]pyrazin-4-one] | > 30 µM | 
< 1 µM |  | O=C1CN(C[C@H]2CNCCO2)C[C@@H]2C[C@H](c3c(O)ccc(Cl)c3Cl)CN12 [Compound 147, (7R,8aS)-7-(2,3-dichloro-6-hydroxyphenyl)-2-[(2R)-morpholin-2-ylmethyl]-hexahydropyrrolo [1,2-a]pyrazin-4-one] | > 30 µM | 
< 1 µM |  | O=C1NC[C@@H]2C[C@H](c3c(O)ccc(Cl)c3Cl)CN12 [Compound 293, (6R,7aS)-6-(2,3-dichloro-6-hydroxyphenyl)-hexahydropyrrolo[1,2-c]imidazol-3-one] | > 30 µM | 
< 1 µM |  | O=C(NCCO)[C@@H]1CC(=O)N2C[C@@H](c3c(O)ccc(Cl)c3Cl)C[C@H]2C1 (single isomer, unassigned) [Compound 234] | > 30 µM | 
< 1 µM |  | C[C@H]1CN(C(=O)CO)C[C@@H]2C[C@H](c3c(O)ccc(Cl)c3Cl)CN2C1=O (single isomer, unassigned; isomer 2) [Compound 92] | > 30 µM | 
< 1 µM |  | C[C@H]1[C@@H]2C[C@H](c3c(O)ccc(Cl)c3Cl)CN2C(=O)CN1C(=O)CO (single isomer, unassigned; isomer 2) [Compound 88] | > 30 µM | 
< 1 µM |  | O=C(CO)NC[C@@H]1OC(=O)N2C[C@@H](c3c(O)ccc(Cl)c3Cl)C[C@@H]12 (single isomer, unassigned) [Compound 274] | > 30 µM | 
 | < 1 µM | COC[C@H](O)C(=O)N1CC(=O)N2CC[C@@H](c3c(O)ccc(Cl)c3Cl)C[C@H]2C1 [Compound 44, (8R,9aS)-8-(2,3-dichloro-6-hydroxyphenyl)-2-[(2S)-2-hydroxy-3-methoxypropanoyl]-hexahydro-1H-pyrido[1,2-a]pyrazin-4-one] |  | > 30 µM
< 1 µM |  | O=C1C[C@@H](c2cn[nH]c2)C[C@@H]2C[C@H](c3c(O)ccc(Cl)c3Cl)CN12 (single isomer, unassigned) [Compound 215] | > 30 µM | 

Source: US20230049231A1 (priority 2019, published 2023)
